Source: PubChem BioAssay (NCI)
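Interpolation was linear, between the two tested concentrations surrounding the appropriate level; five concentrations were tested over 48 hours in 96-well plates. The concentration for full growth arrest is given as TGI.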

Key:
Experiment in all cases: growth of human tumour cells (NCI), 48 h
UO-31 renal = system: UO-31 renal
NCI/ADR-RES ovarian = system: NCI/ADR-RES ovarian
UACC-62 melanoma = system: UACC-62 melanoma
KM12 colon = system: KM12 colon
NCI-H522 lung = system: NCI-H522 lung
PC-3 prostate = system: PC-3 prostate
SF-295 CNS = system: SF-295 CNS
MALME-3M melanoma = system: MALME-3M melanoma
K-562 leukemia = system: K-562 leukemia
NCI-H460 lung = system: NCI-H460 lung
HL-60(TB) leukemia = system: HL-60(TB) leukemia
786-0 renal = system: 786-0 renal
HCT-116 colon = system: HCT-116 colon
RXF 393 renal = system: RXF 393 renal
HS 578T breast = system: HS 578T breast
RPMI-8226 leukemia = system: RPMI-8226 leukemia
A498 renal = system: A498 renal
SNB-75 CNS = system: SNB-75 CNS
SW-620 colon = system: SW-620 colon
HOP-62 NSCLC = system: HOP-62 NSCLC
M14 melanoma = system: M14 melanoma
OVCAR-5 ovarian = system: OVCAR-5 ovarian
T-47D breast = system: T-47D breast
SR leukemia = system: SR leukemia
TK-10 renal = system: TK-10 renal
NCI-H226 lung = system: NCI-H226 lung
IGROV1 ovarian = system: IGROV1 ovarian
U251 CNS = system: U251 CNS
MDA-MB-231 breast = system: MDA-MB-231 breast
SK-MEL-2 melanoma = system: SK-MEL-2 melanoma
MDA-MB-435 = system: MDA-MB-435
OVCAR-8 ovarian = system: OVCAR-8 ovarian
SNB-19 CNS = system: SNB-19 CNS
SN12C renal = system: SN12C renal
OVCAR-4 ovarian = system: OVCAR-4 ovarian
DU-145 prostate = system: DU-145 prostate
SK-MEL-28 melanoma = system: SK-MEL-28 melanoma
HT29 colon = system: HT29 colon
SK-MEL-5 melanoma = system: SK-MEL-5 melanoma
CAKI-1 renal = system: CAKI-1 renal
CCRF-CEM leukemia = system: CCRF-CEM leukemia
HOP-92 NSCLC = system: HOP-92 NSCLC
SK-OV-3 ovarian = system: SK-OV-3 ovarian
NCI-H23 lung = system: NCI-H23 lung
LOX IMVI melanoma = system: LOX IMVI melanoma
BT-549 breast = system: BT-549 breast
A549 NSCLC = system: A549 NSCLC
MDA-N = system: MDA-N
ACHN renal = system: ACHN renal
MCF7 breast = system: MCF7 breast
SF-268 CNS = system: SF-268 CNS
OVCAR-3 ovarian = system: OVCAR-3 ovarian
HCT-15 colon = system: HCT-15 colon
EKVX NSCLC = system: EKVX NSCLC
COLO 205 colon = system: COLO 205 colon

Measured: TGI

O=C(O)C1(Nc2ccc(Cl)cc2)CCCC1
> 100 µM: all assays above
